In patent US11807644B2 (PMV Pharmaceuticals, Inc., priority 2020, dated 2023):

Molecular target: T1, recombinant His-tag Y220C p53 DBD protein (Homo sapiens, UniProt P04637, Y220C)
T1 construct: recombinant His-tag Y220C p53 DBD protein (amino acids #˜94-312)
Test: In vitro DNA binding activity assay (TR-FRET): binding of His-tag Y220C p53 DBD to biotin-labeled consensus DNA
Type: biochemical
Conditions: SC150 = concentration to increase DNA binding by […], His-tag Y220C p53 DBD, biotin-labeled consensus DNA

| Y220C SC150 (μM) | SMILES |
| --- | --- |
| * (* = 0 μM ≤ SC150 < 0.1 μM) | CN1CC[C@@H](Nc2cccc3c2cc(-c2noc(CNC(=O)c4cnn(C)c4)n2)n3CC(F)(F)F)[C@@H](F)C1 [Compound 294B, N-{[3-(4-{[(3S,4R)-3-fluoro-1-methylpiperidin-4-yl]amino}-1-(2,2,2-trifluoroethyl)-1H-indol-2-yl)-1,2,4-oxadiazol-5-yl]methyl}-1-methyl-1H-pyrazole-4-carboxamide] |
| * (* = 0 μM ≤ SC150 < 0.1 μM) | CCN1CC[C@H](Nc2cccc3c2cc(-c2noc(CNC(=O)c4ccn(C(C)(C)C)c4)n2)n3CC(F)(F)F)[C@H](F)C1 [Compound 299B, 1-tert-butyl-N-{[3-(4-{[(3R,4S)-1-ethyl-3-fluoropiperidin-4-yl]amino}-1-(2,2,2-trifluoroethyl)-1H-indol-2-yl)-1,2,4-oxadiazol-5-yl]methyl}-1H-pyrrole-3-carboxamide] |
| * (* = 0 μM ≤ SC150 < 0.1 μM) | COCC(C)n1cc(C(=O)NCc2nc(-c3cc4c(N[C@@H]5CCN(C)C[C@@H]5F)cccc4n3CC(F)(F)F)no2)cn1 (stereo partly drawn) [Compound 302B, N-{[3-(4-{[(3S,4R)-3-fluoro-1-methylpiperidin-4-yl]amino}-1-(2,2,2-trifluoroethyl)-1H-indol-2-yl)-1,2,4-oxadiazol-5-yl]methyl}-1-(1-methoxypropan-2-yl)-1H-pyrazole-4-carboxamide] |
| * (* = 0 μM ≤ SC150 < 0.1 μM) | CC(CF)n1cc(C(=O)NCc2nc(-c3cc4c(N[C@@H]5CCN(C)C[C@@H]5F)cccc4n3CC(F)(F)F)no2)cn1 (stereo partly drawn) [Compound 303B, N-{[3-(4-{[(3S,4R)-3-fluoro-1-methylpiperidin-4-yl]amino}-1-(2,2,2-trifluoroethyl)-1H-indol-2-yl)-1,2,4-oxadiazol-5-yl]methyl}-1-(1-fluoropropan-2-yl)-1H-pyrazole-4-carboxamide] |
| * (* = 0 μM ≤ SC150 < 0.1 μM) | CCN1CC[C@@H](Nc2cccc3c2cc(-c2noc(CNC(=O)c4cnn(C(C)(C)C)c4)n2)n3CC(F)(F)F)[C@@H](F)C1 [Compound 304B, 1-tert-butyl-N-{[3-(4-{[(3S,4R)-1-ethyl-3-fluoropiperidin-4-yl]amino}-1-(2,2,2-trifluoroethyl)-1H-indol-2-yl)-1,2,4-oxadiazol-5-yl]methyl}-1H-pyrazole-4-carboxamide] |
| * (* = 0 μM ≤ SC150 < 0.1 μM) | CC(C)N1CC[C@@H](Nc2cccc3c2cc(-c2noc(CNC(=O)c4cnn(C(C)(C)C)c4)n2)n3CC(F)(F)F)[C@@H](F)C1 [Compound 316B, 1-tert-butyl-N-{[3-(4-{[(3S,4R)-3-fluoro-1-(propan-2-yl)piperidin-4-yl]amino}-1-(2,2,2-trifluoroethyl)-1H-indol-2-yl)-1,2,4-oxadiazol-5-yl]methyl}-1H-pyrazole-4-carboxamide] |
| * (* = 0 μM ≤ SC150 < 0.1 μM) | CC(C)N1CC[C@@H](Nc2cccc3c2cc(-c2noc(CNC(=O)c4ccn(C(C)(C)C)c4)n2)n3CC(F)(F)F)[C@@H](F)C1 [Compound 317B, 1-tert-butyl-N-{[3-(4-{[(3S,4R)-3-fluoro-1-(propan-2-yl)piperidin-4-yl]amino}-1-(2,2,2-trifluoroethyl)-1H-indol-2-yl)-1,2,4-oxadiazol-5-yl]methyl}-1H-pyrrole-3-carboxamide] |
| * (* = 0 μM ≤ SC150 < 0.1 μM) | CC(C)N1CC[C@@H](Nc2cccc3c2cc(-c2noc(CNC(=O)c4cn(C(C)(C)C)cn4)n2)n3CC(F)(F)F)[C@@H](F)C1 [Compound 318B, 1-tert-butyl-N-{[3-(4-{[(3S,4R)-3-fluoro-1-(propan-2-yl)piperidin-4-yl]amino}-1-(2,2,2-trifluoroethyl)-1H-indol-2-yl)-1,2,4-oxadiazol-5-yl]methyl}-1H-imidazole-4-carboxamide] |

Continued, compound first:

| SMILES | Y220C SC150 (μM) |
| --- | --- |
| COc1ccc(C(=O)NCc2nc(-c3cc4c(N[C@@H]5CCN(C)C[C@@H]5F)cccc4n3CC(F)(F)F)no2)cc1 [Compound 295B, N-{[3-(4-{[(3S,4R)-3-fluoro-1-methylpiperidin-4-yl]amino}-1-(2,2,2-trifluoroethyl)-1H-indol-2-yl)-1,2,4-oxadiazol-5-yl]methyl}-4-methoxybenzamide] | * (* = 0 μM ≤ SC150 < 0.1 μM) |
| CN1CC[C@@H](Nc2cccc3c2cc(-c2noc(CNC(=O)c4cnn(C5CC5)c4)n2)n3CC(F)(F)F)[C@@H](F)C1 [Compound 296B, 1-cyclopropyl-N-{[3-(4-{[(3S,4R)-3-fluoro-1-methylpiperidin-4-yl]amino}-1-(2,2,2-trifluoroethyl)-1H-indol-2-yl)-1,2,4-oxadiazol-5-yl]methyl}-1H-pyrazole-4-carboxamide] | * (* = 0 μM ≤ SC150 < 0.1 μM) |
| COCCn1cnc(C(=O)NCc2nc(-c3cc4c(N[C@@H]5CCN(C)C[C@@H]5F)cccc4n3CC(F)(F)F)no2)c1 [Compound 297B, N-{[3-(4-{[(3S,4R)-3-fluoro-1-methylpiperidin-4-yl]amino}-1-(2,2,2-trifluoroethyl)-1H-indol-2-yl)-1,2,4-oxadiazol-5-yl]methyl}-1-(2-methoxyethyl)-1H-imidazole-4-carboxamide] | * (* = 0 μM ≤ SC150 < 0.1 μM) |
| CCN1CC[C@@H](Nc2cccc3c2cc(-c2noc(CNC(=O)c4ccn(C(C)(C)C)c4)n2)n3CC(F)(F)F)[C@@H](F)C1 [Compound 298B, 1-tert-butyl-N-{[3-(4-{[(3S,4R)-1-ethyl-3-fluoropiperidin-4-yl]amino}-1-(2,2,2-trifluoroethyl)-1H-indol-2-yl)-1,2,4-oxadiazol-5-yl]methyl}-1H-pyrrole-3-carboxamide] | * (* = 0 μM ≤ SC150 < 0.1 μM) |
| CN1CC[C@@H](Nc2cccc3c2cc(-c2noc(CNC(=O)c4cnn(Cc5ccccc5)c4)n2)n3CC(F)(F)F)[C@@H](F)C1 [Compound 300B, 1-benzyl-N-{[3-(4-{[(3S,4R)-3-fluoro-1-methylpiperidin-4-yl]amino}-1-(2,2,2-trifluoroethyl)-1H-indol-2-yl)-1,2,4-oxadiazol-5-yl]methyl}-1H-pyrazole-4-carboxamide] | * (* = 0 μM ≤ SC150 < 0.1 μM) |
| CN1CC[C@@H](Nc2cccc3c2cc(-c2noc(CNC(=O)c4cnn(CCF)c4)n2)n3CC(F)(F)F)[C@@H](F)C1 [Compound 301B] | * (* = 0 μM ≤ SC150 < 0.1 μM) |
| CCN1CC[C@@H](Nc2cccc3c2cc(-c2noc(CNC(=O)c4cn(C(C)(C)C)cn4)n2)n3CC(F)(F)F)[C@@H](F)C1 [Compound 305B, 1-tert-butyl-N-{[3-(4-{[(3S,4R)-1-ethyl-3-fluoropiperidin-4-yl]amino}-1-(2,2,2-trifluoroethyl)-1H-indol-2-yl)-1,2,4-oxadiazol-5-yl]methyl}-1H-imidazole-4-carboxamide] | * (* = 0 μM ≤ SC150 < 0.1 μM) |
| CN1CC[C@@H](Nc2cccc3c2cc(-c2noc(CNC(=O)c4cn(CCF)cn4)n2)n3CC(F)(F)F)[C@@H](F)C1 [Compound 306B, N-{[3-(4-{[(3S,4R)-3-fluoro-1-methylpiperidin-4-yl]amino}-1-(2,2,2-trifluoroethyl)-1H-indol-2-yl)-1,2,4-oxadiazol-5-yl]methyl}-1-(2-fluoroethyl)-1H-imidazole-4-carboxamide] | * (* = 0 μM ≤ SC150 < 0.1 μM) |
| CN1CC[C@@H](Nc2cccc3c2cc(-c2noc(CNC(=O)c4cnn(-c5ccccc5)c4)n2)n3CC(F)(F)F)[C@@H](F)C1 [Compound 308B, N-{[3-(4-{1[(3S,4R)-3-fluoro-1-methylpiperidin-4-yl]amino}-1-(2,2,2-trifluoroethyl)-1H-indol-2-yl)-1,2,4-oxadiazol-5-yl]methyl}-1-phenyl-1H-pyrazole-4-carboxamide] | * (* = 0 μM ≤ SC150 < 0.1 μM) |
| CN1CC[C@@H](Nc2cccc3c2cc(-c2noc(CNC(=O)c4cncn4-c4ccccc4)n2)n3CC(F)(F)F)[C@@H](F)C1 [Compound 309B, N-{[3-(4-{[(3S,4R)-3-fluoro-1-methylpiperidin-4-yl]amino)-1-(2,2,2-trifluoroethyl)-1H-indol-2-yl)-1,2,4-oxadiazol-5-yl]methyl}-1-phenyl-1H-imidazole-5-carboxamide] | * (* = 0 μM ≤ SC150 < 0.1 μM) |
| CN1CC[C@@H](Nc2cccc3c2cc(-c2noc(CNC(=O)c4cn(CC(F)F)cn4)n2)n3CC(F)(F)F)[C@@H](F)C1 [Compound 310B, 1-(2,2-difluoroethyl)-N-{[3-(4-{[(3S,4R)-3-fluoro-1-methylpiperidin-4-yl]amino}-1-(2,2,2-trifluoroethyl)-1H-indol-2-yl)-1,2,4-oxadiazol-5-yl]methyl}-1H-imidazole-4-carboxamide] | * (* = 0 μM ≤ SC150 < 0.1 μM) |
| Cc1nn(C(C)C)cc1C(=O)NCc1nc(-c2cc3c(N[C@@H]4CCN(C)C[C@@H]4F)cccc3n2CC(F)(F)F)no1 [Compound 311B, N-{[3-(4-{[(3S,4R)-3-fluoro-1-methylpiperidin-4-yl]amino}-1-(2,2,2-trifluoroethyl)-1H-indol-2-yl)-1,2,4-oxadiazol-5-yl]methyl}-3-methyl-1-(propan-2-yl)-1H-pyrazole-4-carboxamide] | * (* = 0 μM ≤ SC150 < 0.1 μM) |
| CN1CC[C@@H](Nc2cccc3c2cc(-c2noc(CNC(=O)c4cnn(C5CCCC5)c4)n2)n3CC(F)(F)F)[C@@H](F)C1 [Compound 312B, 1-cyclopentyl-N-{[3-(4-{[(3S,4R)-3-fluoro-1-methylpiperidin-4-yl]amino}-1-(2,2,2-trifluoroethyl)-1H-indol-2-yl)-1,2,4-oxadiazol-5-yl]methyl}-1H-pyrazole-4-carboxamide] | * (* = 0 μM ≤ SC150 < 0.1 μM) |
| CCN1CC[C@@H](Nc2cccc3c2cc(-c2noc(CNC(=O)c4cnn(C5CCOC5)c4)n2)n3CC(F)(F)F)[C@@H](F)C1 (stereo partly drawn) [Compound 314B, N-{[3-(4-{[(3S,4R)-1-ethyl-3-fluoropiperidin-4-yl]amino}-1-(2,2,2-trifluoroethyl)-1H-indol-2-yl)-1,2,4-oxadiazol-5-yl]methyl}-1-(oxolan-3-yl)-1H-pyrazole-4-carboxamide] | * (* = 0 μM ≤ SC150 < 0.1 μM) |
